Consider 19 compounds from US20260250290A1 (BRISTOL-MYERS SQUIBB COMPANY, priority 2023, published 2026).

Counter-ions that a name gives are not always drawn.

The assay addresses T1, full length SGK1 (Homo sapiens, UniProt O00141).
T1 construct: 125 μM full length SGK1 (Life Technologies Part #PR7358A); purchased Life Technologies PR7358A
T1 sequence (O00141 1-431): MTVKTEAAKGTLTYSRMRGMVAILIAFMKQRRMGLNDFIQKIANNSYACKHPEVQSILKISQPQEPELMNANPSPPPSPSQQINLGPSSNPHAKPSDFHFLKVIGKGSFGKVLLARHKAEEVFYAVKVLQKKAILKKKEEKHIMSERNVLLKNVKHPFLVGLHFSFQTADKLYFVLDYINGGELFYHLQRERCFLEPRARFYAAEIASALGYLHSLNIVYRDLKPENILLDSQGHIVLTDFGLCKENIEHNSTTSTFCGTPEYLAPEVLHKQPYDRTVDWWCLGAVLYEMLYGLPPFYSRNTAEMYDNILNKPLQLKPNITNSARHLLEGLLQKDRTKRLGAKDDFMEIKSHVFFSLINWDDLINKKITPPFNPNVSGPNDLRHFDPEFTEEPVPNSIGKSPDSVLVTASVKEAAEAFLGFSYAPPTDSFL
Nature of the assay: SGK1 inhibition Assay A (Caliper LabChip electrophoretic separation of fluorescent peptide substrate and phosphorylated product). Type of assay: biochemical. Particulars: Assay A; 20 μM ATP, 40 min incubation; read-out: SGK1 IC50.
The IC50 is the concentration at which inhibition is half-maximal. Take `COC(=O)N1CC=C(c2cc(N3CCC[C@@H](NC(=O)c4sc(Cl)cc4OCCN4C[C@@H](C)O[C@@H](C)C4)C3)c3c(N)ncnn23)C1` [Example 287, Methyl 3-(4-amino-5-((R)-3-(5-chloro-3-(2-((2S,6R)-2,6-dimethylmorpholino)ethoxy)thiophene-2-carboxamido)piperidin-1-yl)pyrrolo[2,1-f] [1,2,4]triazin-7-yl)-2,5-dihydro-1H-pyrrole-1-carboxylate]: the IC50 was 22 nM. To `Nc1ncnn2c(C3=CCN(C(=O)C4CCCOC4)C3)cc(N3CCC[C@@H](NC(=O)c4ccc(Cl)s4)C3)c12` (stereo partly drawn) [Example 893, N-((3R)-1-(4-amino-7-(1-(tetrahydro-2H-pyran-3-carbony1)-2,5-dihydro-1H-pyrrol-3-yl)pyrrolo[2,1-f][1,2,4]triazin-5-y1)piperidin-3-y1)-5-chlorothiophene-2-carboxamide] belongs 7 nM. For `Cc1nc(OC2CCN(C(C)C)CC2)c(C(=O)N[C@@H]2CCCN(c3cc(-c4ccc(C#N)nc4)n4ncnc(N)c34)C2)s1` [Example 363, (R)-N-(1-(4-amino-7-(6-cyanopyridin-3-yl)pyrrolo[2,1-f][1,2,4]triazin-5-yl)piperidin-3-yl)-4-((1-isopropylpiperidin-4-yl)oxy)-2-methylthiazole-5-carboxamide], the IC50 was 7 nM. As to `CC(=O)N1CC=C(c2cc(N3CCCC(NC(=O)c4sc(Cl)cc4OCC4CCNC4)C3)c3c(N)ncnn23)C1` (single isomer, unassigned) [Example 638], the IC50 stood at 8 nM. To `COc1cc(C(=O)N[C@@H]2CCCN(c3cc(C4=CCN(C(C)=O)C4)n4ncnc(N)c34)C2)sn1` [Example 256, (R)—N-(1-(7-(1-acetyl-2,5-dihydro-1H-pyrrol-3-yl)-4-aminopyrrolo[2,1-f][1,2,4]triazin-5-yl)piperidin-3-yl)-3-methoxyisothiazole-5-carboxamide] belongs 0.5 nM; to `CS(=O)(=O)c1ccc(-c2cc(N3CC[C@@H]4C[C@]4(NC(=O)c4ccc(Cl)s4)C3)c3c(N)ncnn23)cc1` (relative stereo) [Example 165, rel-N-((1R,6R)-3-(4-amino-7-(4-(methylsulfonyl)phenyl)pyrrolo[2,1-f][1,2,4]triazin-5-yl)-3-azabicyclo[4.1.0]heptan-1-yl)-5-chlorothiophene-2-carboxamide, TFA], 284 nM. To `CC(=O)N1CC=C(c2cc(N3CCCC(NC(=O)c4sc(Cl)cc4OC4CCNC(C)C4)C3)c3c(N)ncnn23)C1` (single isomer, unassigned) [Example 622] belongs 3 nM. Next, `CC(=O)N1CC=C(c2cc(N3CCC[C@@H](NC(=O)c4sc(Cl)cc4OCC4(N)CC4)C3)c3c(N)ncnn23)C1` [Example 331, (R)—N-(1-(7-(1-acetyl-2,5-dihydro-1H-pyrrol-3-yl)-4-aminopyrrolo[2,1-f][1,2,4]triazin-5-yl)piperidin-3-yl)-3-((1-aminocyclopropyl)methoxy)-5-chlorothiophene-2-carboxamide]: 21 nM; `CC(C)c1cc(C(=O)N[C@@H]2CCCN(c3cc(C4=CCN(S(C)(=O)=O)C4)n4ncnc(N)c34)C2)on1` [Example 119, (R)—N-(1-(4-amino-7-(1-(methylsulfonyl)-2,5-dihydro-1H-pyrrol-3-yl)pyrrolo[2,1-f][1,2,4]triazin-5-yl)piperidin-3-yl)-3-isopropylisoxazole-5-carboxamide, TFA]: 18 nM; `CN(C)CCOc1cc(Cl)sc1C(=O)N[C@@H]1CCCN(c2cc(-c3ccn4nnnc4c3)n3ncnc(N)c23)C1` [Example 186, (R)—N-(1-(4-amino-7-(tetrazolo[1,5-a]pyridin-7-yl)pyrrolo[2,1-f][1,2,4]triazin-5-yl)piperidin-3-yl)-5-chloro-3-(2-(dimethylamino)ethoxy)thiophene-2-carboxamide]: 3 nM.

Take `CC(=O)N1CC=C(c2cc(N3CCC[C@@H](NC(=O)C4CCC(F)(F)C4)C3)c3c(N)ncnn23)C1` (stereo partly drawn) [Example 712, N-((R)-1-(7-(1-acetyl-2,5-dihydro-1H-pyrrol-3-yl)-4-aminopyrrolo[2,1-f][1,2,4]triazin-5-yl)piperidin-3-yl)-3,3-difluorocyclopentane-1-carboxamide]: the IC50 was found to be 1300 nM. Next, `Nc1ncnn2c(-c3ccnc(C(F)F)c3)cc(N3CCC[C@@H](NC(=O)c4cc5ccccc5s4)C3)c12` [Example 645, (R)-N-(1-(4-amino-7-(2-(difluoromethyl)pyridin-4-y1)pyrrolo[2,1-f][1,2,4]triazin-5-y1)piperidin-3-yl)benzo[b]thiophene-2-carboxamide]: 4 nM. Turning to `CC(=O)N1CC=C(c2cc(N3CCC[C@@H](NC(=O)c4sc(C5CC5)cc4OC4CCN(C)CC4)C3)c3c(N)ncnn23)C1` [Example 376, (R)—N-(1-(7-(1-acetyl-2,5-dihydro-1H-pyrrol-3-yl)-4-aminopyrrolo[2,1-f][1,2,4]triazin-5-yl)piperidin-3-yl)-5-cyclopropyl-3-((1-methylpiperidin-4-yl)oxy)thiophene-2-carboxamide], the IC50 was 7 nM. Turning to `CC(=O)N1CC=C(c2cc(N3CCC[C@@H](NC(=O)c4sc(C(F)F)cc4C4CCNCC4)C3)c3c(N)ncnn23)C1` [Example 393E, (R)—N-(1-(7-(1-acetyl-2,5-dihydro-1H-pyrrol-3-yl)-4-aminopyrrolo[2,1-f][1,2,4]triazin-5-yl)piperidin-3-yl)-5-(difluoromethyl)-3-(piperidin-4-yl)thiophene-2-carboxamide], the IC50 came to 162 nM.

For the compound `COc1cc(C#N)ccc1C(=O)N[C@@H]1CCCN(c2cc(C3=CCN(C(C)=O)C3)n3ncnc(N)c23)C1` [Example 496, (R)-N-(1-(7-(1-acetyl-2,5-dihydro-1H-pyrrol-3-yl)-4-aminopyrrolo[2,1-f][1,2,4]triazin-5-yl)piperidin-3-yl)-4-cyano-2-methoxybenzamide], the IC50 came out at 344 nM. Next, `COC(=O)N1CC=C(c2cc(N3CCC[C@@H](NC(=O)c4sc(C(F)F)cc4OCCN)C3)c3c(N)ncnn23)C1` [Example 324, methyl (R)-3-(4-amino-5-(3-(3-(2-aminoethoxy)-5-(difluoromethyl)thiophene-2-carboxamido)piperidin-1-yl)pyrrolo[2,1-f][1,2,4]triazin-7-yl)-2,5-dihydro-1H-pyrrole-1-carboxylate]: 4 nM.

On to `Nc1ncnn2c(-c3ccnc(F)c3)cc(N3CCC[C@@H](NC(=O)c4csc(Cl)c4)C3)c12` [Example 161, (R)-N-(1-(4-amino-7-(2-fluoropyridin-4-yl)pyrrolo[2,1-f][1,2,4]triazin-5-yl)piperidin-3-yl)-5-chlorothiophone-3-carboxamide], for which the IC50 is 2 nM. On to `CS(=O)(=O)c1ccc(-c2cc(N3CCC[C@@H](NC(=O)c4cnns4)C3)c3c(N)ncnn23)cc1` [Example 70, (R)-N-(1-(4-amino-7-(4-(methylsulfonyl)phenyl)pyrrolo[2,1-f][1,2,4]triazin-5-yl)piperidin-3-yl)-1,2,3-thiadiazole-5-carboxamide], for which the IC50 amounted to 21 nM. On to `CS(=O)(=O)c1ccc(-c2cc(N3CCC[C@@H](NC(=O)c4ccccc4OC(F)F)C3)c3c(N)ncnn23)cc1` [Example 58, (R)-N-(1-(4-amino-7-(4-(methylsulfonyl)phenyl)pyrrolo[2,1-f][1,2,4]triazin-5-yl)piperidin-3-yl)-2-(difluoromethoxy) benzamide, TFA], for which the IC50 is 854 nM.
